Experiment [1] concerns the target T1, MEK1 activated ERK1 (Homo sapiens, UniProt P27361).
T1 construct: purchased Millipore (Billerica, Mass.) 14-439-K
The experiment is described as follows: Omnia continuous-read kinase assay for potency against MEK1 activated ERK1. Type of experiment: biochemical. The conditions noted are these: ATP at KM, WT. The method in brief: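 Apparent IC50 came from initial reaction slopes (RFU vs time) plotted against log inhibitor with a variable-slope fit. Reactions were started with ERK1 (4 nM final) added to 50 μM ATP, roughly at its appKM, and 10 μM Sox-conjugated ST17 peptide in 20 mM Tris pH 7.5, 5 mM MgCl2. Fluorescence was monitored every 71 seconds.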

Experiment [2] deals with ERK1/2 phosphorylation of p90RSK in HCT116 cells. The experiment is described as follows: Detection of total and phospho-RSK by MSD ELISA (HCT116). Type of experiment: cell-based. The conditions noted are these: Homo sapiens, HCT-116, read-out: ERK1/ERK2 PRSK HCT116 EC50. The method in brief:
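HCT116 cells treated with compound in RPMI/10% FBS for 2 h at 37° C, then lysed. Phospho-RSK (Ser380) and total RSK in lysates measured by MSD sandwich electrochemiluminescence ELISA as a readout of ERK1/2 activity.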

T1 sequence (P27361 whole entry): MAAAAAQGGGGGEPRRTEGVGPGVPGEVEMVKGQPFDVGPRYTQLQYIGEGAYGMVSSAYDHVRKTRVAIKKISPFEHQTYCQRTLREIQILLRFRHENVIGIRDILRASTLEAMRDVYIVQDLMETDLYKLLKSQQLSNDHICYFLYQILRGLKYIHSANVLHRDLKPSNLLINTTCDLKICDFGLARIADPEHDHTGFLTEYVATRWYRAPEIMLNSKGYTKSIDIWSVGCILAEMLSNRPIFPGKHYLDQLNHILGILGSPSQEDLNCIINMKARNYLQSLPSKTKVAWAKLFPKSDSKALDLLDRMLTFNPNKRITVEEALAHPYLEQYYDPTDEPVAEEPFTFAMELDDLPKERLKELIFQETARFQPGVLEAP

As for `C=CC(=O)Nc1cc(CN2CCN(C(=O)c3ccccn3)CC2)ccc1Nc1nc(Nc2cc(OC)ncc2C)ncc1C(F)(F)F` [Compound I-388, N-(2-((2-((2-methoxy-5-methylpyridin-4-yl)amino)-5-(trifluoromethyl)pyrimidin-4-yl)amino)-5-((4-picolinoylpiperazin-1-yl)methyl)phenyl)acrylamide], the IC50 in experiment [1] was in the range of 101 to 500 nM. Moreover, in experiment [2], the EC50 is less than 100 nM.

With `C=CC(=O)Nc1cc(CN2CCN(C(=O)c3ccccn3)CC2)ccc1Nc1nc(Nc2nc(OC)ncc2C)ncc1C(F)(F)F` [Compound I-391, N-(2-((2-((2-methoxy-5-methylpyrimidin-4-yl)amino)-5-(trifluoromethyl)pyrimidin-4-yl)amino)-5-((4-picolinoylpiperazin-1-yl)methyl)phenyl)acrylamide], the IC50 in experiment [1] was in the range of 101 to 500 nM. Further, in experiment [2], the EC50 was 101 to 500 nM.

As for `C=CC(=O)Nc1cc(OC(F)(F)F)ccc1Nc1nc(Nc2cc(OC)ncc2C)ncc1C(F)(F)F` [Compound I-407, N-(2-((2-((2-methoxy-5-methylpyridin-4-yl)amino)-5-(trifluoromethyl)pyrimidin-4-yl)amino)-5-(trifluoromethoxy)phenyl)acrylamide], in experiment [1], the IC50 lay in the range of 101 to 500 nM. Moreover, the EC50 in experiment [2] was in the range of 101 to 500 nM.

As to `C=CC(=O)Nc1cc(C)ccc1Nc1nc(Nc2cc(OC)ncc2CC)ncc1C(F)(F)F` [Compound I-408, N-(2-((2-((5-ethyl-2-methoxypyridin-4-yl)amino)-5-(trifluoromethyl)pyrimidin-4-yl)amino)-5-methylphenyl)acrylamide], the IC50 in experiment [1] lay within 101 to 500 nM. In experiment [2], the EC50 lay in the range of 501 to 999 nM.

With `C=CC(=O)Nc1cc(O[C@H](C)C(=O)N2CCN(C(C)=O)CC2)ccc1Nc1nc(Nc2cc(OC)ncc2C)ncc1C(F)(F)F` [Compound I-409, (R)—N-(5-((1-(4-acetylpiperazin-1-yl)-1-oxopropan-2-yl)oxy)-2-((2-((2-methoxy-5-methylpyridin-4-yl)amino)-5-(trifluoromethyl)pyrimidin-4-yl)amino)phenyl)acrylamide], in experiment [1], the IC50 was less than 100 nM. In experiment [2], the EC50 lay in the range of 501 to 999 nM.

On to `C=CC(=O)Nc1cc(O[C@H](C)C(=O)N2CCN(S(C)(=O)=O)CC2)ccc1Nc1nc(Nc2cc(OC)ncc2C)ncc1C(F)(F)F` [Compound I-410, (R)—N-(2-((2-((2-methoxy-5-methylpyridin-4-yl)amino)-5-(trifluoromethyl)pyrimidin-4-yl)amino)-5-((1-(4-(methylsulfonyl)piperazin-1-yl)-1-oxopropan-2-yl)oxy)phenyl)acrylamide], for which the IC50 in experiment [1] was less than 100 nM. Besides, in experiment [2], the EC50 fell in the range of 101 to 500 nM.

With `C=CC(=O)Nc1c(Nc2nc(Nc3cc(OC)ncc3C)ncc2OC)cccc1OCc1nccs1` [Compound I-411, N-(2-((5-methoxy-2-((2-methoxy-5-methylpyridin-4-yl)amino)pyrimidin-4-yl)amino)-6-(thiazol-2-ylmethoxy)phenyl)acrylamide], the IC50 in experiment [1] was more than 1000 nM. Further, in experiment [2], the EC50 is more than 1000 nM.

On to `C=CC(=O)Nc1cc(O[C@@H](C)C(N)=O)ccc1Nc1nc(Nc2cc(OC)ncc2C)ncc1C(F)(F)F` [Compound I-412, (S)—N-(5-((1-amino-1-oxopropan-2-yl)oxy)-2-((2-((2-methoxy-5-methylpyridin-4-yl)amino)-5-(trifluoromethyl)pyrimidin-4-yl)amino)phenyl)acrylamide], for which the IC50 in experiment [1] was less than 100 nM. The EC50 in experiment [2] fell in the range of 101 to 500 nM.

For `C=CC(=O)Nc1cc(O[C@H](C)C(N)=O)ccc1Nc1nc(Nc2cc(OC)ncc2C)ncc1C(F)(F)F` [Compound I-413, (R)—N-(5-((1-amino-1-oxopropan-2-yl)oxy)-2-((2-((2-methoxy-5-methylpyridin-4-yl)amino)-5-(trifluoromethyl)pyrimidin-4-yl)amino)phenyl)acrylamide], the IC50 in experiment [1] was less than 100 nM. In addition, the EC50 in experiment [2] was less than 100 nM.

With `C=CC(=O)Nc1cc(OCC(=O)N2CCN(C(C)=O)CC2)ccc1Nc1nc(Nc2cc(OC)ncc2OC)ncc1C(F)(F)F` [Compound I-415, N-(5-(2-(4-acetylpiperazin-1-yl)-2-oxoethoxy)-2-((2-((2,5-dimethoxypyridin-4-yl)amino)-5-(trifluoromethyl)pyrimidin-4-yl)amino)phenyl)acrylamide], the IC50 in experiment [1] is less than 100 nM. Also, the EC50 in experiment [2] was 101 to 500 nM.

For the compound `C=CC(=O)Nc1cc(OCCN2CCN(C(C)=O)CC2)ccc1Nc1nc(Nc2cc(OC)ncc2C)ncc1C(F)(F)F` [Compound I-416, N-(5-(2-(4-acetylpiperazin-1-yl)ethoxy)-2-((2-((2-methoxy-5-methylpyridin-4-yl)amino)-5-(trifluoromethyl)pyrimidin-4-yl)amino)phenyl)acrylamide], the IC50 in experiment [1] was less than 100 nM. Further, in experiment [2], the EC50 is 101 to 500 nM.

With `C=CC(=O)Nc1cc(C)ccc1Nc1nc(NCC2COC2)ncc1C(F)(F)F` [Compound I-417, N-(5-methyl-2-((2-((oxetan-3-ylmethyl)amino)-5-(trifluoromethyl)pyrimidin-4-yl)amino)phenyl)acrylamide], the IC50 in experiment [1] is more than 1000 nM. The EC50 in experiment [2] was more than 1000 nM.

`C=CC(=O)Nc1cc(C)ccc1Nc1nc(Nc2cc(C(=O)OC)nn2C)ncc1C(F)(F)F` [Compound I-418, Methyl 5-((4-((2-acrylamido-4-methylphenyl)amino)-5-(trifluoromethyl)pyrimidin-2-yl)amino)-1-methyl-1H-pyrazole-3-carboxylate]: the IC50 in experiment [1] lay in the range of 101 to 500 nM. Besides, in experiment [2], the EC50 lay in the range of 101 to 500 nM.

As for `C=CC(=O)Nc1cc(C)ccc1Nc1nc(Nc2cc(C(F)(F)F)nn2C)ncc1C(F)(F)F` [Compound I-419, N-(5-methyl-2-((2-((1-methyl-3-(trifluoromethyl)-1H-pyrazol-5-yl)amino)-5-(trifluoromethyl)pyrimidin-4-yl)amino)phenyl)acrylamide], the IC50 in experiment [1] was more than 1000 nM. Besides, in experiment [2], the EC50 is more than 1000 nM.

`C=CC(=O)Nc1cc(C)ccc1Nc1nc(NC2COC2)ncc1C(F)(F)F` [Compound I-420, N-(5-methyl-2-((2-(oxetan-3-ylamino)-5-(trifluoromethyl)pyrimidin-4-yl)amino)phenyl)acrylamide]: in experiment [1], the 50% inhibitory concentration (IC50) is more than 1000 nM. Moreover, the EC50 in experiment [2] is more than 1000 nM.

For the compound `C=CC(=O)Nc1cc(CN2CCN(C(C)=O)C[C@@H]2C)ccc1Nc1nc(Nc2cc(OC)ncc2C)ncc1C(F)(F)F` [Compound I-421, (S)—N-(5-((4-acetyl-2-methylpiperazin-1-yl)methyl)-2-((2-((2-methoxy-5-methylpyridin-4-yl)amino)-5-(trifluoromethyl)pyrimidin-4-yl)amino)phenyl)acrylamide], the IC50 in experiment [1] is less than 100 nM. For the same compound, the EC50 in experiment [2] is 101 to 500 nM.

`C=CC(=O)Nc1cc(CN2CCN(C(C)=O)C[C@H]2C)ccc1Nc1nc(Nc2cc(OC)ncc2C)ncc1C(F)(F)F` [Compound I-422, (R)—N-(5-((4-acetyl-2-methylpiperazin-1-yl)methyl)-2-((2-((2-methoxy-5-methylpyridin-4-yl)amino)-5-(trifluoromethyl)pyrimidin-4-yl)amino)phenyl)acrylamide]: the IC50 in experiment [1] was less than 100 nM. For the same compound, in experiment [2], the EC50 is less than 100 nM.

Consider `C=CC(=O)Nc1cc(C)ccc1Nc1nc(Nc2cc(C(N)=O)nn2C)ncc1C(F)(F)F` [Compound I-423, 5-((4-((2-acrylamido-4-methylphenyl)amino)-5-(trifluoromethyl)pyrimidin-2-yl)amino)-1-methyl-1H-pyrazole-3-carboxamide], for which, in experiment [1], the IC50 was more than 1000 nM. Besides, the EC50 in experiment [2] is more than 1000 nM.

With `C=CC(=O)Nc1cc(C)ccc1Nc1nc(Nc2cc(C(=O)NC)nn2C)ncc1C(F)(F)F` [Compound I-424, 5-((4-((2-acrylamido-4-methylphenyl)amino)-5-(trifluoromethyl)pyrimidin-2-yl)amino)-N,1-dimethyl-1H-pyrazole-3-carboxamide], in experiment [1], the IC50 was more than 1000 nM. Moreover, the EC50 in experiment [2] is 101 to 500 nM.

For `C=CC(=O)Nc1cc(O[C@@H](C)C(=O)N2CCN(C(C)=O)CC2)ccc1Nc1nc(Nc2cc(OC)ncc2C)ncc1C(F)(F)F` [Compound I-425, (S)—N-(5-((1-(4-acetylpiperazin-1-yl)-1-oxopropan-2-yl)oxy)-2-((2-((2-methoxy-5-methylpyridin-4-yl)amino)-5-(trifluoromethyl)pyrimidin-4-yl)amino)phenyl)acrylamide], the IC50 in experiment [1] fell in the range of 101 to 500 nM. Also, the EC50 in experiment [2] lay in the range of 501 to 999 nM.

For the compound `C=CC(=O)Nc1cc(O[C@@H](C)C(=O)N2CCN(S(C)(=O)=O)CC2)ccc1Nc1nc(Nc2cc(OC)ncc2C)ncc1C(F)(F)F` [Compound I-426, (S)—N-(2-((2-((2-methoxy-5-methylpyridin-4-yl)amino)-5-(trifluoromethyl)pyrimidin-4-yl)amino)-5-((1-(4-(methylsulfonyl)piperazin-1-yl)-1-oxopropan-2-yl)oxy)phenyl)acrylamide], the IC50 in experiment [1] was 501 to 999 nM. Also, the EC50 in experiment [2] lay within 101 to 500 nM.

Consider `C=CC(=O)Nc1cc(CCc2cnn(C)c2)ccc1Nc1nc(Nc2cc(OC)ncc2C)ncc1C(F)(F)F` [Compound I-427, N-(2-((2-((2-methoxy-5-methylpyridin-4-yl)amino)-5-(trifluoromethyl)pyrimidin-4-yl)amino)-5-(2-(1-methyl-1H-pyrazol-4-yl)ethyl)phenyl)acrylamide], for which, in experiment [1], the IC50 was 101 to 500 nM. Also, the EC50 in experiment [2] was 501 to 999 nM.

Source of the values: patent publication US9561228B2 (Celgene Avilomics Research, Inc., priority 2013, dated 2017).
